Reference: BindingDB's records for doi:10.1021/jm00017a003 (Sterling Winthrop Pharmaecuticals Research Division, 1995)

Assay: The compound was tested for inhibition of HIV-1 replication in SW480 cells using HIV tat assay

SMILES	IC50
C[C@@]12CCCC[C@]13O[C@@H]3C(=O)C(C#N)C2 (some centres not stated)	34 µM
C[C@]12CCCC[C@]1(O)[C@H](Cl)C(=O)C(C(N)=O)C2 (some centres not stated)	32.1 µM
C[C@]12CCCC[C@@]13O[C@H]3C(=O)C(C#N)C2 (some centres not stated)	278 µM
C[C@@]12CCCC[C@@]1(O)[C@@H](Cl)C(=O)C(C(=O)Nc1ccccc1)C2 (some centres not stated)	7 µM
C[C@]12CC[C@H]3[C@@H](CC[C@@]45O[C@@H]4C(=O)C(S(=O)(=O)c4ccccc4)C[C@]35C)[C@@H]1CC[C@@H]2O (some centres not stated)	10.3 µM
CC(=O)O[C@H]1CC[C@H]2[C@@H]3CC[C@@]45O[C@@H]4C(=O)C(S(C)(=O)=O)C[C@]5(C)[C@H]3CC[C@]12C (some centres not stated)	2.6 µM
CC(=O)O[C@H]1CC[C@H]2[C@@H]3CC[C@@]45O[C@@H]4C(=O)C(C(N)=O)C[C@]5(C)[C@H]3CC[C@]12C (some centres not stated)	2.6 µM
C[C@]12CC[C@H]3[C@@H](CC[C@@]45O[C@@H]4C(=O)C(C(N)=O)C[C@]35C)[C@@H]1CC[C@@H]2O (some centres not stated)	14.3 µM
COc1ccc(NC(=O)C2C[C@]3(C)CCCC[C@@]3(O)[C@@H](Cl)C2=O)cc1 (some centres not stated)	33.5 µM
C[C@@]12CCCC[C@]13O[C@@H]3C(=O)C(C(=O)Nc1ccccc1)C2 (some centres not stated)	2.8 µM
CC(=O)O[C@H]1CC[C@H]2[C@@H]3CC[C@@]45O[C@@H]4C(=O)C(C#N)C[C@]5(C)[C@H]3CC[C@]12C (some centres not stated)	24.5 µM
CC(=O)O[C@H]1CC[C@H]2[C@@H]3CC[C@@]4(O)[C@@H](Cl)C(=O)C(C(N)=O)C[C@]4(C)[C@H]3CC[C@]12C (some centres not stated)	8.4 µM
COc1ccc(NC(=O)C2C[C@]3(C)CCCC[C@]34O[C@@H]4C2=O)cc1 (some centres not stated)	25.7 µM
C[C@@]12CCCC[C@@]1(O)[C@@H](Cl)C(=O)C(C(N)=O)C2 (some centres not stated)	16.5 µM
C[C@@]12CCCC[C@]13O[C@@H]3C(=O)C(C(N)=O)C2 (some centres not stated)	9.9 µM
C[C@]12CCCC[C@@]13O[C@H]3C(=O)C(C(N)=O)C2 (some centres not stated)	72 µM
C[C@]12CC[C@H]3[C@@H](CC[C@@]45O[C@@H]4C(=O)CC[C@]35C)[C@@H]1CC[C@@H]2O	15.4 µM
COc1ccc(NC(=O)C2CC(C)(C)C3OC3C2=O)cc1 (configuration not stated)	21.4 µM
C[C@]12CCC3C(CC[C@@]45O[C@@H]4C(=O)C(S(C)(=O)=O)C[C@]35C)C1CC[C@@H]2O (some centres not stated)	8.4 µM
COC(=O)C1C[C@]2(C)[C@H]3CC[C@]4(C)[C@@H](OC(C)=O)CC[C@H]4[C@@H]3CC[C@]23O[C@@H]3C1=O (some centres not stated)	2.7 µM
CC1(C)CC(C(=O)Nc2c(Cl)cccc2Cl)C(=O)C2OC21 (configuration not stated)	31.7 µM
COC(=O)C1C[C@]2(C)[C@H]3CC[C@]4(C)[C@@H](O)CC[C@H]4[C@@H]3CC[C@]23O[C@@H]3C1=O (some centres not stated)	3.6 µM
